Experimental data reported in PMC12441774, “Proteolytic stabilization of a spider venom peptide results in an orally active bioinsecticide” (Pest Management Science, 2025).
Bridges are numbered along the chain shown (N, C = ends). Where no end group is shown, it is not given here.

Key:
[1] = test system: Helicoverpa zea; experiment: Insecticidal activity by injection into fourth instar larvae; format: in vivo; conditions: fourth instar larvae, 1 μL into penultimate proleg, mortality 24 h after injection, eight larvae per treatment, at least triplicate
Procedure: Helicoverpa zea (Boddie, 1850) larvae were reared from eggs (Benzon, Carlisle, PA) to fourth instar on general purpose lepidopteran diet (F9772, Frontier Agricultural Sciences, Newark, DE). Pre‐weighed larvae immobilized on ice were injected into their penultimate proleg as described for M. domestica with 1 μL solution and eight larvae per treatment in at least triplicate. After injection, larvae were placed in a well of a 32‐well tray filled with 5 mL lepidopteran diet. The trays were then placed in an incubator at 28° C with 16:8 h light: dark cycle and evaluated 24 h after injection for mortality.
(§1) To compare the potency of Ta1b, we also injected the following active ingredients into M. domestica and H. zea: GS‐ω/κ (Spear, Vestaron), spinosad (Monterey Garden Insect Spray, Monterey), thiamethoxam (Optigard® Flex, Syngenta), and chlorantraniliprole (ALTACOR®, FMC).

[2] = test system: Musca domestica; experiment: Insecticidal activity by injection into adult house flies; format: in vivo; conditions: adult house flies 12–18 mg, 0.5 μL into dorsal thorax, mortality 24 h post‐injection, 10 flies per treatment, at least triplicate, four‐parameter sigmoidal fit
Procedure: Adult house flies (Musca domestica L.) were immobilized with CO2 gas and those with an average weight of 12–18 mg were selected for injection. Purified solutions of Ta1b and variants were diluted in water and injected into the dorsal thorax with a 1‐cc syringe and 30‐gauge needle using a hand microapplicator (Burkard, Rickmansworth, England). Each adult was injected with 0.5 μL of solution with 10 flies per treatment in at least triplicate. Water was used as a negative control. Flies were placed into a container with moist filter paper and scored for mortality 24 h post‐injection. Ten non‐injected flies were placed in a container to assess CO2 mortality. Response curves were fitted with a four‐parameter sigmoidal function (GraphPad Prism, Boston, MA) to determine LD50 values.
as §1

[3] = Protease stability, commercial trypsin digestion; format: in vitro ADME, bovine; conditions: bovine trypsin 1 mg mL^−1 in 50 mM Tris–HCl pH 8.8, 100 mM NaCl; 5 μL added to 200 μL of 10.7 mg mL^−1 peptide; room temperature; HPLC; read-out: Degradation half life, Trypsin
Procedure: (§2) For commercial enzyme digestion studies, bovine trypsin (Sigma‐Aldrich, St. Louis, MO) was prepared at a concentration of 1 mg mL^−1 in 50 mM Tris–HCl pH 8.8, 100 mM NaCl. Bovine chymotrypsin (Sigma‐Aldrich) was prepared at a concentration of 1 mg ml^−1 in 50 mM MES pH 6.0, 100 mM NaCl. For each digestion condition, 5 μL of trypsin or chymotrypsin solution were added to 200 μL of 10.7 mg mL^−1 peptide and incubated at room temperature. Samples were taken at defined timepoints, sterile filtered, and analyzed immediately by HPLC.

[4] = molecular target: T1, bovine trypsin (Bos taurus, UniProt P00760); experiment: Protease stability, commercial trypsin digestion; format: in vitro ADME; conditions: for Degradation half time ratio to Ta1b, Trypsin: ratio of half lives with bovine trypsin
T1 construct: purchased Sigma-Aldrich
T1 sequence (P00760 24-246): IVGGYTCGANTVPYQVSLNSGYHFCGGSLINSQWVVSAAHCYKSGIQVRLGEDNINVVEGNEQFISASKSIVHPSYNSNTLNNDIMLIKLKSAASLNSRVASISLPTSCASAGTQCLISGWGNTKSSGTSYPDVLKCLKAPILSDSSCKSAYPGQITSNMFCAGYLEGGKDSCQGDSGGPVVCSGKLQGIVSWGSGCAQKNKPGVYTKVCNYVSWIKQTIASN
Procedure: as §2

[5] = Gut enzyme digestion, M. sexta gut extract; format: in vitro ADME, Manduca sexta; conditions: for half-life: M. sexta fifth instar gut extract diluted 10× in 30 mM Tris–HCl pH 8.8, 0.5–1 mg mL^−1 peptide, HPLC, single exponential decay fit, read-out: Degradation half life, Gut extract; for Degradation half time ratio to Ta1b, Gut extract: ratio of half lives in M. sexta gut extract; for Fold stability improvement over Ta1b: gut extract stability testing, limit of testing 50‐fold
Procedure: (§3) Larvae of H. zea, Spodoptera frugiperda Smith and Abbot, 1797, and Trichoplusia ni Hubner, 1802 were purchased from Benzon Research and reared to fifth instar on general purpose lepidopteran diet. Manduca sexta L. were purchased from Carolina Biological Supply (Burlington, NC) and reared to fifth instar on the supplied diet. Larvae were anesthetized on ice for 30 min, pinned on a dissection plate, and opened laterally with microdissection scissors. The foregut, midgut and hindgut were excised and washed using sterile water to remove any excess hemolymph and then transferred into a chilled 2‐mL microcentrifuge tube. The extracts were spun in a microcentrifuge at 10000 g to pellet the solids. The liquid fractions were carefully removed, sterile filtered, and stored at −80°C for future use.
(§4) For gut enzyme digestion studies, gut extract was diluted 10× with the dilution buffer (30 mM Tris–HCl, pH 8.8) and 0.5–1 mg mL^−1 of Ta1b. Samples were taken from the digestion mixture at defined timepoints and mixed with a 1:6 ratio of stop buffer (Tris–HCl pH 1–2) to halt further digest of the peptide. Samples were sterile filtered and analyzed by HPLC to determine peptide integrity and concentration.

[6] = Gut enzyme digestion, T. ni gut extract; format: in vitro ADME, Trichoplusia ni; conditions: extract diluted ten-fold, single exponential decay fit, HPLC
Procedure: as §3, §4

[7] = Gut enzyme digestion, H. zea gut extract; format: in vitro ADME, Helicoverpa zea; conditions: extract diluted ten-fold, single exponential decay fit, HPLC
Procedure: as §3, §4

[8] = Gut enzyme digestion, stated jointly for three lepidopteran gut extracts; format: in vitro ADME, H. zea, S. frugiperda, T. ni; conditions: 10‐fold diluted gut extract, single exponential decay, followed up to 21 h
Procedure: as §3, §4

[9] = Gut enzyme digestion, S. frugiperda gut extract; format: in vitro ADME, Spodoptera frugiperda; conditions: extract diluted ten-fold, single exponential decay fit, HPLC
Procedure: as §3, §4

[10] = test system: H. zea neonates; experiment: Insecticidal activity by foliar spray (lettuce leaf disk feeding); format: in vivo, Helicoverpa zea
Procedure: Organic romaine lettuce was cut into 30‐mm diameter disks and sterilized with a 140‐ppm bleach solution followed by a triple rinse in water. The lettuce disks were then sprayed on either side using a Potter Tower Sprayer (Burkard, Rickmansworth, England) with insecticidal solutions, allowing them to dry between sprays. Once fully sprayed and dried, disks were placed into an arena, which was a 32‐well rearing tray containing 5 mL of 1% w/v agar. One leaf disk was placed in each well and a single neonate H. zea was applied to each of the 12 leaf discs per treatment with four experimental replicates per treatment. The trays were then placed in a 28° C incubator with a 16:8 h light: dark cycle. Mortality was evaluated 4 days after application.

CNC(=O)c1cc(Cl)cc(C)c1NC(=O)c1cc(Br)nn1-c1ncccc1Cl [Chlorantraniliprole, chlorantraniliprole]
Insecticidal LD50, injection, H. zea (95% CI) [1]: 0.22 (0.15–0.37) nmol g^−1 | Insecticidal LD50, injection, M. domestica (95% CI) [2]: no activity

CN1COCN(Cc2cnc(Cl)s2)/C1=N\[N+](=O)[O-] [Thiamethoxam, thiamethoxam]
Insecticidal LD50, injection, H. zea (95% CI) [1]: 31.9 (20.2–52.1) nmol g^−1 | Insecticidal LD50, injection, M. domestica (95% CI) [2]: 23.2 (18.1–29.6) nmol g^−1

EPDEICAARMTNKEFTYKSNVCNNCGDQVAACEAECFRNDVYTACHEAQKG (disulfide 6-36, 22-32, 25-45) [Mutant R7A]
half-life at 10.4 mg mL^-1 [3]: 132 min | Degradation half time ratio to Ta1b, Trypsin [4]: 0.5

EPDEICRAAMTNKEFTYKSNVCNNCGDQVAACEAECFRNDVYTACHEAQKG (disulfide 6-36, 22-32, 25-45) [Mutant R9A]
half-life [5]: 298 min | Degradation half time ratio to Ta1b, Gut extract [5]: 213 | half-life at 10.4 mg mL^-1 [3]: > 6000 min | Digestion by bovine trypsin (HPLC) ([4]; pH 8.8, room temperature, HPLC chromatogram): complete abrogation of Ta1b digestion | Degradation half time ratio to Ta1b, Trypsin [4]: >20

EPDEICRAHMTNKEFTYKSNVCNNCGDQVAACEAECFRNDVYTACHEAQKG (disulfide 6-36, 22-32, 25-45) [Mutant R9H]
Fold stability improvement over Ta1b [5]: 16.2

EPDEICRANMTNKEFTYKSNVCNNCGDQVAACEAECFRNDVYTACHEAQKG (disulfide 6-36, 22-32, 25-45) [Mutant R9N]
Fold stability improvement over Ta1b [5]: >50

EPDEICRAQMTNKEFTYKSNVCNNCGDQVAACEAECFRNDVYTACHEAQKG (disulfide 6-36, 22-32, 25-45) [Mutant R9Q]
Fold stability improvement over Ta1b [5]: >50 | Degradation half-life in T. ni gut extract [6]: could not be fit to an exponential decay | Degradation half-life in H. zea gut extract [7]: could not be fit to an exponential decay | Degradation half‐lives in gut extracts from H. zea, S. frugiperda, and T. ni [8]: too little degradation to calculate half‐lives even after 21 h | Degradation half-life in S. frugiperda gut extract [9]: could not be fit to an exponential decay

EPDEICRARMPNKEFTYKSNVCNNCGDQVAACEAECFRNDVYTACHEAQKG (disulfide 6-36, 22-32, 25-45) [Mutant T11P]
Fold stability improvement over Ta1b [5]: >50

EPDEICRARMTNAEFTYKSNVCNNCGDQVAACEAECFRNDVYTACHEAQKG (disulfide 6-36, 22-32, 25-45) [Mutant K13A]
half-life at 10.4 mg mL^-1 [3]: 294 min | Degradation half time ratio to Ta1b, Trypsin [4]: 1.0

EPDEICRARMTNKEFTYASNVCNNCGDQVAACEAECFRNDVYTACHEAQKG (disulfide 6-36, 22-32, 25-45) [Mutant K18A]
half-life at 10.4 mg mL^-1 [3]: 1190 min | Degradation half time ratio to Ta1b, Trypsin [4]: 4.1

EPDEICRARMTNKEFTYKSNVCNNCGDQVAACEAECFANDVYTACHEAQKG (disulfide 6-36, 22-32, 25-45) [Mutant R38A]
half-life [5]: 12.9 min | Degradation half time ratio to Ta1b, Gut extract [5]: 9.2 | half-life at 10.4 mg mL^-1 [3]: 1860 min | Degradation half time ratio to Ta1b, Trypsin [4]: 6.5

EPDEICRNRMTNKEFTYKSNVCNNCGDQVAACEAECFRNDVYTACHEAQKG (disulfide 6-36, 22-32, 25-45) [Mutant A8N]
Fold stability improvement over Ta1b [5]: 1.8

EPDEICRSRMTNKEFTYKSNVCNNCGDQVAACEAECFRNDVYTACHEAQKG (disulfide 6-36, 22-32, 25-45) [Mutant A8S]
Fold stability improvement over Ta1b [5]: 12.1

GSQYCVPVDQPCSLNTQPCCDDATCTQERNENGHTVYYCRA (disulfide 5-20, 12-25, 19-39) [GS‐ω/κ, reference compound]
Degradation when incubated with gut extract (HPLC) ([5]; M. sexta gut extract, HPLC peak): did not show any degradation | Insecticidal LD50, injection, H. zea (95% CI) [1]: 5.9 (4.9–6.9) nmol g^−1 | Insecticidal LD50, injection, M. domestica (95% CI) [2]: 0.19 (0.17–0.21) nmol g^−1 | Day 4 mortality of H. zea on treated lettuce leaves, peptide alone ([10]; 100 μg cm^−2, neonates, compared to untreated): significant activity on its own | Day 4 mortality of H. zea on treated lettuce leaves, peptide in combination with Btk ([10]; 100 μg cm^−2 peptide with sublethal Btk 0.17 μg cm^−2, neonates): activity is increased

H-ICRAQMTNKEFTYKSNVCNNCGDQVAACEAECFRNDVYAACHEAQKG-OH (disulfide 2-32, 18-28, 21-41)
Reduction in melting temperature vs Ta1b-QA: 14.2 °C
